27 compounds from patent US8901118B2, “Compounds and methods for kinase modulation, and indications therefor” (Plexxikon Inc., priority 2010, dated 2014) can be followed below.

For one test, the target named is CYP2C9 (Homo sapiens, UniProt P11712). As to the kind of experiment: CYP2C9 inhibition (fluorescent substrate MFC). In kind it is in vitro ADME. Particulars: read-out: Cyp IC50 2C9. The essentials: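 Test compounds, 10-point 1:1 serial dilutions in NADPH-regenerating cofactor mix, were preincubated 10 min at 37° C before recombinant enzyme and fluorogenic substrate reactions at 37° C (CYP1A2 15 min; CYP2C9 45 min; CYP2C19, 2D6 30 min). Product fluorescence was read at 409 ex with 460 em (1A2, 2C19) or 530 em (2C9, 2D6), and IC50 fitted from signal versus concentration.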
Chain of CYP2C9 (P11712 whole entry): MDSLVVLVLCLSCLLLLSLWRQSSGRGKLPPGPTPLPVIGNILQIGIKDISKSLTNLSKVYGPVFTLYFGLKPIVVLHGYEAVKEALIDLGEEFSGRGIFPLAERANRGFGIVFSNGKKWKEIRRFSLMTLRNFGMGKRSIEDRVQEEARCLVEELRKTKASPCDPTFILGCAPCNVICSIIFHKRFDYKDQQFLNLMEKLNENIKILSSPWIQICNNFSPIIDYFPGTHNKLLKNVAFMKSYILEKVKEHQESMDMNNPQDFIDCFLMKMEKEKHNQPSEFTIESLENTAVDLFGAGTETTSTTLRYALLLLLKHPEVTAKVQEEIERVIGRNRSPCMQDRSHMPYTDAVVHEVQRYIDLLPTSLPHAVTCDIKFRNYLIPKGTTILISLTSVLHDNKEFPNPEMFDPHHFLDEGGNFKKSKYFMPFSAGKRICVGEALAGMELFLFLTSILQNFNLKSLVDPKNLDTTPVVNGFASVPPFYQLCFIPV

The target in another test is T1, BCR-FMS BaF3 cells (Homo sapiens, UniProt P07333).
T1 construct: fused on or other part: P11274 (Breakpoint cluster region protein)
T1 sequence (P07333 582-910): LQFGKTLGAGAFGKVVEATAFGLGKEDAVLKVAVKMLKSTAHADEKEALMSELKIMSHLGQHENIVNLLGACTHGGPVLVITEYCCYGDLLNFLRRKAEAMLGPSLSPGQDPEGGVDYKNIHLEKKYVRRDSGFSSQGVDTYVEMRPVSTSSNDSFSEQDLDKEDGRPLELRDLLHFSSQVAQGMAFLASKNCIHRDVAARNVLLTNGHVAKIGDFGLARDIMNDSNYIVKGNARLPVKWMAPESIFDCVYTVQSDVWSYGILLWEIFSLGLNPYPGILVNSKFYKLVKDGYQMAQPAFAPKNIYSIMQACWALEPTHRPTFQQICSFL
As to the kind of experiment: BaF3 BCR-FMS cell proliferation assay (ATPlite). Format: cell-based. To be noted: read-out: Inhibition of Cell Proliferation IC50, BCR/BaF3 Fms. An outline of the steps: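 Growth inhibition over 3 days at 37 °C; IC50 from ATPlite luminescence, 8 concentrations (1:3 steps, max 10 μM). BaF3 fusion lines were tested without IL-3.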
On the technique in general: In ATP-based viability assays light output follows the ATP content of the culture.

Some results are limits rather than exact numbers.

As for `Clc1cnc2[nH]cc(Cc3cnc(NC4CCCCC4)nc3)c2c1` [Compound P-3001, [5-(5-chloro-1H-pyrrolo[2,3-b]pyridin-3-ylmethyl)-pyrimidin-2-yl]-cyclohexyl-amine], the IC50 is greater than 10 µM at CYP2C9 and less than 0.1 µM at BCR-FMS BaF3 cells.
`FC1(F)CCC(Nc2ncc(Cc3c[nH]c4ncc(Cl)cc34)cn2)CC1` [Compound P-3004]: the IC50 at CYP2C9 is greater than 10 µM; on BCR-FMS BaF3 cells, less than 0.1 µM.
With `Clc1cnc2[nH]cc(Cc3cnc(NC4CCCCCC4)nc3)c2c1` [Compound P-3006, [5-(5-Chloro-1H-pyrrolo[2,3-b]pyridin-3-ylmethyl)-pyrimidin-2-yl]-cycloheptyl-amine], the results for the IC50 at CYP2C9 and at BCR-FMS BaF3 cells were greater than 10 µM and less than 1 µM, respectively.
On the same counts, the results for `Cc1cnc2[nH]cc(Cc3cnc(Nc4ccc(C(F)(F)F)nc4)nc3)c2c1` [Compound P-3018, [5-(5-Methyl-1H-pyrrolo[2,3-b]pyridin-3-ylmethyl)-pyrimidin-2-yl]-(6-trifluoromethyl-pyridin-3-yl)-amine] are greater than 10 µM and less than 0.1 µM.
For the compound `COc1ccc(Nc2ccc(Cc3c[nH]c4ncc(C)cc34)c(F)n2)cn1` [Compound P-3019, [6-fluoro-5-(5-methyl-1H-pyrrolo[2,3-b]pyridin-3-ylmethyl)-pyridin-2-yl]-(6-methoxy-pyridin-3-yl)-amine], the IC50 is greater than 10 µM on CYP2C9 and less than 0.01 µM on BCR-FMS BaF3 cells.
The matching figures for `CCOc1ccc(Nc2ccc(Cc3c[nH]c4ncc(C)cc34)c(F)n2)cn1` [Compound P-3039, (6-ethoxy-pyridin-3-yl)-[6-fluoro-5-(5-methyl-1H-pyrrolo[2,3-b]pyridin-3-ylmethyl)-pyridin-2-yl]-amine]: greater than 10 µM and less than 0.01 µM.
For `COc1ccc(Nc2ccc(C(=O)c3c[nH]c4ncc(C)cc34)c(F)n2)cn1` [Compound P-3040, [2-Fluoro-6-(6-methoxy-pyridin-3-ylamino)-pyridin-3-yl]-(5-methyl-1H-pyrrolo[2,3-b]pyridin-3-yl)-methanone], the IC50 at CYP2C9 is greater than 10 µM; at BCR-FMS BaF3 cells, less than 0.1 µM.
On to `Cc1cnc2[nH]cc(Cc3ccc(Nc4ccc(C)nc4)nc3F)c2c1` [Compound P-3041, [6-Fluoro-5-(5-methyl-1H-pyrrolo[2,3-b]pyridin-3-ylmethyl)-pyridin-2-yl]-(6-methyl-pyridin-3-yl)-amine], for which the values for the IC50 on CYP2C9 and on BCR-FMS BaF3 cells were greater than 10 µM and less than 0.01 µM, respectively.
The matching figures for `Cc1cnc2[nH]cc(C(=O)c3ccc(Nc4ccc(C)nc4)nc3F)c2c1` [Compound P-3043, [2-Fluoro-6-(6-methyl-pyridin-3-ylamino)-pyridin-3-yl]-(5-methyl-1H-pyrrolo[2,3-b]pyridin-3-yl)-methanone]: greater than 10 µM and less than 0.1 µM.
On the same counts, the results for `Cc1ccc(Nc2ccc(C(=O)c3c[nH]c4ncc(Cl)cc34)c(F)n2)cn1` [Compound P-3044, (5-Chloro-1H-pyrrolo[2,3-b]pyridin-3-yl)-[2-fluoro-6-(6-methyl-pyridin-3-ylamino)-pyridin-3-yl]-methanone] are greater than 10 µM and less than 0.1 µM.
On the same counts, the results for `CCc1ccc(Nc2ccc(Cc3c[nH]c4ncc(C)cc34)c(F)n2)cn1` [Compound P-3048, (6-Ethyl-pyridin-3-yl)-[6-fluoro-5-(5-methyl-1H-pyrrolo[2,3-b]pyridin-3-ylmethyl)-pyridin-2-yl]-amine] are greater than 10 µM and less than 0.01 µM.
Take `CCc1ccc(Nc2ccc(C(=O)c3c[nH]c4ncc(C)cc34)c(F)n2)cn1` [Compound P-3049, [6-(6-Ethyl-pyridin-3-ylamino)-2-fluoro-pyridin-3-yl]-(5-methyl-1H-pyrrolo[2,3-b]pyridin-3-yl)-methanone]: the IC50 on CYP2C9 was greater than 10 µM; on BCR-FMS BaF3 cells, less than 0.01 µM.
The matching figures for `Cc1cnc2[nH]cc(Cc3ccc(Nc4ccc(C5CC5)nc4)nc3F)c2c1` [Compound P-3050, (6-Cyclopropyl-pyridin-3-yl)-[6-fluoro-5-(5-methyl-1H-pyrrolo[2,3-b]pyridin-3-ylmethyl)-pyridin-2-yl]-amine]: greater than 10 µM and less than 0.1 µM.
On to `Cc1cnc2[nH]cc(C(=O)c3ccc(Nc4ccc(C5CC5)nc4)nc3F)c2c1` [Compound P-3051, [6-(6-Cyclopropyl-pyridin-3-ylamino)-2-fluoro-pyridin-3-yl]-(5-methyl-1H-pyrrolo[2,3-b]pyridin-3-yl)-methanone], for which the results for the IC50 at CYP2C9 and on BCR-FMS BaF3 cells were greater than 10 µM and less than 0.1 µM, respectively.
The matching figures for `O=C(c1ccc(Nc2ccc(C3CC3)nc2)nc1F)c1c[nH]c2ncccc12` [Compound P-3052, [6-(6-Cyclopropyl-pyridin-3-ylamino)-2-fluoro-pyridin-3-yl]-(1H-pyrrolo[2,3-b]pyridin-3-yl)-methanone]: 5 to 10 µM and less than 0.1 µM.
The matching figures for `Fc1nc(Nc2ccc(C3CC3)nc2)ccc1Cc1c[nH]c2ncccc12` [Compound P-3053, (6-Cyclopropyl-pyridin-3-yl)-[6-fluoro-5-(1H-pyrrolo[2,3-b]pyridin-3-ylmethyl)-pyridin-2-yl]-amine]: greater than 10 µM and less than 0.01 µM.
On the same counts, the results for `COc1ccc(Nc2ccc(Cc3c[nH]c4ncnc(OC)c34)c(F)n2)cn1` [Compound P-4001, [6-Fluoro-5-(4-methoxy-7H-pyrrolo[2,3-d]pyrimidin-5-ylmethyl)-pyridin-2-yl]-(6-methoxy-pyridin-3-yl)-amine] are greater than 10 µM and less than 0.01 µM.
For `COc1ccc(Nc2ccc(Cc3c[nH]c4ncnc(C)c34)c(F)n2)cn1` [Compound P-4002, [6-Fluoro-5-(4-methyl-7H-pyrrolo[2,3-d]pyrimidin-5-ylmethyl)-pyridin-2-yl]-(6-methoxy-pyridin-3-yl)-amine], the figures for the IC50 at CYP2C9 and on BCR-FMS BaF3 cells were greater than 10 µM and less than 0.1 µM, respectively.
On the same counts, the results for `COc1ncnc2[nH]cc(Cc3ccc(Nc4ccc(Cl)nc4)nc3F)c12` [Compound P-4003, (6-Chloro-pyridin-3-yl)-[6-fluoro-5-(4-methoxy-7H-pyrrolo[2,3-d]pyrimidin-5-ylmethyl)-pyridin-2-yl]-amine] are greater than 10 µM and less than 0.1 µM.
The matching figures for `COc1ncnc2[nH]cc(Cc3ccc(Nc4ccc(C5CC5)nc4)nc3F)c12` [Compound P-4004, (6-Cyclopropyl-pyridin-3-yl)-[6-fluoro-5-(4-methoxy-7H-pyrrolo[2,3-d]pyrimidin-5-ylmethyl)-pyridin-2-yl]-amine]: greater than 10 µM and less than 0.01 µM.
Regarding `CCOc1ccc(Nc2ccc(Cc3c[nH]c4ncnc(OC)c34)c(F)n2)cn1` [Compound P-4005, (6-Ethoxy-pyridin-3-yl)-[6-fluoro-5-(4-methoxy-7H-pyrrolo[2,3-d]pyrimidin-5-ylmethyl)-pyridin-2-yl]-amine], the IC50 is greater than 10 µM at CYP2C9 and less than 0.01 µM on BCR-FMS BaF3 cells.
On the same counts, the results for `CCOc1ccc(Nc2ccc(Cc3c[nH]c4ncnc(C)c34)c(F)n2)cn1` [Compound P-4006, (6-Ethoxy-pyridin-3-yl)-[6-fluoro-5-(4-methyl-7H-pyrrolo[2,3-d]pyrimidin-5-ylmethyl)-pyridin-2-yl]-amine] are greater than 10 µM and less than 0.01 µM.
For the compound `CCc1ccc(Nc2ccc(Cc3c[nH]c4ncnc(OC)c34)c(F)n2)cn1` [Compound P-4007, (6-Ethyl-pyridin-3-yl)-[6-fluoro-5-(4-methoxy-7H-pyrrolo[2,3-d]pyrimidin-5-ylmethyl)-pyridin-2-yl]-amine], the IC50 was greater than 10 µM at CYP2C9 and less than 0.01 µM on BCR-FMS BaF3 cells.
For the compound `CCOc1ccc(Nc2ccc(Cc3c[nH]c4ncnc(OCCOC)c34)c(F)n2)cn1` [Compound P-4008, (6-Ethoxy-pyridin-3-yl)-{6-fluoro-5-[4-(2-methoxy-ethoxy)-7H-pyrrolo[2,3-d]pyrimidin-5-ylmethyl]-pyridin-2-yl}-amine], the IC50 on CYP2C9 is greater than 10 µM; on BCR-FMS BaF3 cells, less than 0.01 µM.
For `CCc1ccc(Nc2ccc(Cc3c[nH]c4ncnc(C)c34)c(F)n2)cn1` [Compound P-4009, (6-Ethyl-pyridin-3-yl)-[6-fluoro-5-(4-methyl-7H-pyrrolo[2,3-d]pyrimidin-5-ylmethyl)-pyridin-2-yl]-amine], the IC50 at CYP2C9 was greater than 10 µM; at BCR-FMS BaF3 cells, less than 0.01 µM.
Regarding `COc1ncnc2[nH]cc(Cc3ccc(Nc4ccc(C)nc4)nc3F)c12` [Compound P-4010, [6-Fluoro-5-(4-methoxy-7H-pyrrolo[2,3-d]pyrimidin-5-ylmethyl)-pyridin-2-yl]-(6-methyl-pyridin-3-yl)-amine], the IC50 at CYP2C9 was greater than 10 µM; at BCR-FMS BaF3 cells, less than 0.01 µM.
On to `CCn1cc(Nc2ccc(Cc3c[nH]c4ncnc(OC)c34)c(F)n2)cn1` [Compound P-4011, (1-Ethyl-1H-pyrazol-4-yl)-[6-fluoro-5-(4-methoxy-7H-pyrrolo[2,3-d]pyrimidin-5-ylmethyl)-pyridin-2-yl]-amine], for which the IC50 was 5 to 10 µM on CYP2C9 and less than 0.01 µM on BCR-FMS BaF3 cells.
